EPA's ToxRefDB 2

Assays:
mouse [1] = conditions: Multigenerational reproductive toxicity study, cd1, Oral, Gavage/Intubation, dose end: 2 generation
rat [2] = conditions: Combined chronic toxicity/carcinogenicity; fischer; Oral; Gavage/Intubation; dose end: 104 week; group: systemic; systemic / pathology microscopic / stomach / hyperplasia + systemic / pathology microscopic / clitoral gland / hyperplasia + systemic / …
mouse [3] = conditions: Combined chronic toxicity/carcinogenicity; b6c3f1; Oral; Gavage/Intubation; dose end: 104 week; group: systemic; systemic / pathology microscopic / stomach / hyperkeratosis + systemic / pathology microscopic / stomach / hyperplasia + systemic / …
rat [4] = conditions: Sub-acute repeat dose toxicity, other, Inhalation, Whole-Body, dose end: 4 week, group: systemic
rat [5] = conditions: Combined chronic toxicity/carcinogenicity, fischer, Oral, Gavage/Intubation, dose end: 104 week, group: systemic
rat [6] = conditions: Sub-acute repeat dose toxicity, sprague dawley, Oral, Gavage/Intubation, dose end: 10 day, group: systemic
rat [7] = conditions: Subchronic inhalation toxicity, other, Whole-Body, dose end: 13 week, group: systemic
mouse [8] = conditions: Combined chronic toxicity/carcinogenicity, b6c3f1, Oral, Gavage/Intubation, dose end: 104 week, group: systemic
rat [9] = conditions: Subchronic oral toxicity in rodents, sprague dawley, Water, dose end: 90 day, group: systemic
rat [10] = conditions: Subchronic inhalation toxicity, other, Whole-Body, dose end: 13 week, group: systemic; remark: listed apart in the source
rat [11] = conditions: Multigenerational reproductive toxicity study, other, Inhalation, Whole-Body, dose end: 1 generation
rat [12] = conditions: Subchronic oral toxicity in rodents, sprague dawley, Gavage/Intubation, dose end: 90 day, group: systemic
rat [13] = conditions: Subchronic oral toxicity in rodents, fischer, Gavage/Intubation, dose end: 17 week, group: systemic
mouse [14] = conditions: Subchronic oral toxicity in rodents, b6c3f1, Gavage/Intubation, dose end: 17 week, group: systemic
rat [15] = conditions: Prenatal developmental toxicity study; wistar; Oral; Gavage/Intubation; dose end: 21 GD; group: developmental; systemic / in life observation / body weight / fetal weight + developmental / developmental landmark / anogenital distance (agd) / …
mouse [16] = conditions: Sub-acute repeat dose toxicity, b6c3f1, Oral, Gavage/Intubation, dose end: 14 day, group: systemic
mouse [17] = conditions: Subchronic oral toxicity in rodents, b6c3f1, Gavage/Intubation, dose end: 13 week, group: systemic
rat [18] = conditions: Subchronic oral toxicity in rodents, fischer, Gavage/Intubation, dose end: 13 week, group: systemic
[19] = group: offspring, systemic / in life observation / body weight / offspring (pup) weight + systemic / in life observation / water consumption / water …
[20] = group: offspring, systemic / organ weight / kidney / relative to body weight + systemic / organ weight / liver / relative to body weight
[21] = group: parental, systemic / in life observation / body weight / body weight + systemic / in life observation / water consumption / water consumption + …
[22] = group: reproductive, reproductive / reproductive performance / estrous cycle / length
[23] = group: reproductive, reproductive / reproductive performance / fertility / fertility + reproductive / reproductive performance / gestational length / gestational…
[24] = systemic / in life observation / body weight / body weight + systemic / in life observation / body weight / body weight gain + systemic / in…
[25] = systemic / in life observation / body weight / body weight gain + systemic / organ weight / liver / absolute + systemic / organ weight / …
[26] = systemic / pathology microscopic / clitoral gland / adenoma + systemic / pathology microscopic / clitoral gland / adenoma/carcinoma combined…
[27] = systemic / pathology microscopic / stomach / squamous cell papilloma + systemic / pathology microscopic / pancreas / hyperplasia + systemic…
[28] = systemic / clinical chemistry / urea nitrogen / urea nitrogen + systemic / organ weight / kidney / relative to body weight
[29] = systemic / clinical chemistry / urea nitrogen / urea nitrogen + systemic / organ weight / kidney / relative to body weight + systemic / …
[30] = systemic / hematology / platelet / platelet + systemic / in life observation / clinical signs / lacrimation
[31] = systemic / in life observation / clinical signs / lacrimation
[32] = systemic / pathology microscopic / harderian gland / adenoma + systemic / pathology microscopic / liver / hepatocellular adenoma + systemic…
[33] = systemic / pathology microscopic / stomach / squamous cell carcinoma + systemic / pathology microscopic / stomach / squamous cell papilloma…
[34] = systemic / clinical chemistry / aminopyrine-n-demethylase / aminopyrine-n-demethylase + systemic / clinical chemistry / cholesterol / …
[35] = systemic / hematology / leukocyte (wbc) count differential / leukocyte (wbc) + systemic / in life observation / body weight / body weight + …
[36] = systemic / pathology microscopic / lung / hyperplasia + systemic / pathology microscopic / spleen / hematopoietic cell proliferation + …
[37] = group: parental, systemic / in life observation / body weight / body weight + systemic / in life observation / body weight / body weight gain
[38] = group: reproductive, reproductive / reproductive performance / mating / mating
[39] = systemic / pathology microscopic / heart / inflammation + systemic / pathology microscopic / heart / necrosis
[40] = systemic / pathology microscopic / heart / inflammation + systemic / pathology microscopic / heart / necrosis + systemic / clinical …
[41] = systemic / clinical chemistry / [other] / [other] + systemic / hematology / erythrocyte (rbc) count differential / erythrocyte (rbc) + …
[42] = systemic / pathology microscopic / lung / regeneration + systemic / pathology microscopic / stomach / acanthosis + systemic / pathology …
[43] = systemic / organ weight / stomach / nos + systemic / pathology microscopic / stomach / hyperplasia + systemic / pathology microscopic / …
[44] = systemic / pathology microscopic / stomach / hyperplasia
[45] = systemic / pathology microscopic / stomach / hyperplasia + systemic / organ weight / stomach / absolute + systemic / organ weight / stomach…

## ClCC(Cl)CCl [1,2,3-Trichloropropane]
Mouse [1]; [19]
  LOAEL: > 120 mg/kg/day
  NOAEL: ≥ 120 mg/kg/day
Mouse [1]; [20]
  LEL: 30 mg/kg/day
  NEL: < 30 mg/kg/day
Mouse [1]; [21]
  LEL: 120 mg/kg/day
  LOAEL: > 120 mg/kg/day
  NEL: 60 mg/kg/day
  NOAEL: ≥ 120 mg/kg/day
Mouse [1]; [22]
  LEL: 30 mg/kg/day
  NEL: < 30 mg/kg/day
Mouse [1]; [23]
  LOAEL: > 120 mg/kg/day
  NOAEL: ≥ 120 mg/kg/day
Rat [2]
  LEL: 3 mg/kg/day
  LOAEL: 3 mg/kg/day
  NEL: < 3 mg/kg/day
  NOAEL: < 3 mg/kg/day
Mouse [3]
  LEL: 6 mg/kg/day
  LOAEL: 6 mg/kg/day
  NEL: < 6 mg/kg/day
  NOAEL: < 6 mg/kg/day
Rat [4]; [24]
  LOAEL: > 900 ppm
  NOAEL: ≥ 900 ppm
Rat [4]; [25]
  LEL: 100 ppm
  NEL: < 100 ppm
Rat [5]; [26]
  LOAEL: > 30 mg/kg/day
  NOAEL: ≥ 30 mg/kg/day
Rat [5]; [27]
  LEL: 3 mg/kg/day
  NEL: < 3 mg/kg/day
Rat [6]; [28]
  LEL: 0.00147 mg/kg/day
  NEL: < 0.00147 mg/kg/day
Rat [6]; [29]
  LOAEL: > 0.118 mg/kg/day
  NOAEL: ≥ 0.118 mg/kg/day
Rat [7]; [30]
  LOAEL: > 1.5 ppm
  NOAEL: ≥ 1.5 ppm
Rat [7]; [31]
  LEL: 0.5 ppm
  NEL: < 0.5 ppm
Mouse [8]; [32]
  LOAEL: > 60 mg/kg/day
  NOAEL: ≥ 60 mg/kg/day
Mouse [8]; [33]
  LEL: 6 mg/kg/day
  NEL: < 6 mg/kg/day
Rat [9]; [34]
  LOAEL: > 50 mg/kg/day
  NEL: 0.5 mg/kg/day
  NOAEL: ≥ 50 mg/kg/day
Rat [9]; systemic / in life observation / water consumption / water consumption + systemic / organ weight / kidney / relative to body weight + …
  LEL: 5 mg/kg/day
Rat [10]; [35]
  LOAEL: > 50 ppm
  NOAEL: ≥ 50 ppm
Rat [10]; [36]
  LEL: 5 ppm
  NEL: < 5 ppm
Rat [11]; [37]
  LEL: 15 ppm
  LOAEL: > 15 ppm
  NEL: 5 ppm
  NOAEL: ≥ 15 ppm
Rat [11]; [38]
  LEL: 5 ppm
  LOAEL: > 15 ppm
  NEL: < 5 ppm
  NOAEL: ≥ 15 ppm
Rat [12]; [39]
  LEL: 0.00147 mg/kg/day
  NEL: < 0.00147 mg/kg/day
Rat [12]; [40]
  LOAEL: > 0.059 mg/kg/day
  NOAEL: ≥ 0.059 mg/kg/day
Rat [13]; [41]
  LEL: 8 mg/kg/day
  NEL: < 8 mg/kg/day
Rat [13]; systemic / pathology microscopic / kidney / regeneration + systemic / clinical chemistry / [other] / [other] + systemic / clinical chemistry…
  NOAEL: 32 mg/kg/day
Rat [13]; systemic / pathology microscopic / kidney / regeneration + systemic / organ weight / kidney / absolute + systemic / in life observation / …
  LOAEL: 63 mg/kg/day
Mouse [14]; systemic / organ weight / liver / absolute
  LEL: 32 mg/kg/day
Mouse [14]; systemic / organ weight / liver / absolute + systemic / in life observation / body weight / body weight gain + systemic / in life …
  NEL: 16 mg/kg/day
Mouse [14]; [42]
  LOAEL: 63 mg/kg/day
  NOAEL: 32 mg/kg/day

## CC(C)COC(=O)c1ccccc1C(=O)OCC(C)C [Diisobutyl phthalate]
Rat [15]
  LEL: 600 mg/kg/day
  LOAEL: > 600 mg/kg/day
  NEL: < 600 mg/kg/day
  NOAEL: ≥ 600 mg/kg/day

## CC(C)(C)OOC(=O)c1ccccc1 [tert-Butyl perbenzoate]
Mouse [16]; [43]
  LOAEL: > 1110 mg/kg/day
  NEL: 140 mg/kg/day
  NOAEL: ≥ 1110 mg/kg/day
Mouse [16]; systemic / pathology microscopic / stomach / hyperplasia + systemic / organ weight / stomach / nos
  LEL: 278 mg/kg/day
Mouse [17]; [44]
  LEL: 60 mg/kg/day
  LOAEL: 60 mg/kg/day
Mouse [17]; [45]
  NEL: 30 mg/kg/day
  NOAEL: 30 mg/kg/day
Rat [18]; [44]
  LEL: 30 mg/kg/day
  NEL: < 30 mg/kg/day
Rat [18]; systemic / pathology microscopic / stomach / hyperplasia + systemic / pathology microscopic / stomach / inflammation
  LOAEL: 250 mg/kg/day
Rat [18]; systemic / pathology microscopic / stomach / hyperplasia + systemic / pathology microscopic / stomach / inflammation + systemic / in life …
  NOAEL: 125 mg/kg/day
